EC50, sphere-forming capacity and remaining binding data for 2 compounds are collected here from publication PMC7407272, “Induction of Lysosome Membrane Permeabilization as a Therapeutic Strategy to Target Pancreatic Cancer Stem Cells” (Cancers, 2020).

Assay [1] deals with PDAC1 3D spheres. As to the kind of experiment: Viability curves on PDAC1 3D spheres. The class given is cell-based. The conditions noted are these: Homo sapiens, 30 h. The source says:
The PDAC patient-derived xenograft (PDX) Panc354 (referred to hereafter as PDAC3) was obtained from Dr. Manuel Hidalgo under a Material Transfer Agreement with the Spanish National Cancer Centre (CNIO), Madrid, Spain (Reference no. I409181220BSMH). PDAC1, PDAC2 and PDAC4 PDXs were established from primary patient resected tumors. Samples were provided by the BioBank Hospital Ramón y Cajal-IRYCIS (PT13/0010/0002), integrated in the Spanish National Biobanks Network and they were processed following standard operating procedures with the appropriate approval of the Ethical and Scientific Committees (Control no. No. Control: DE-BIOB-73 AC65, RG.BIOB-96 REV, and CI-BIOB-08-10-01 rev), with informed consent and according to Declaration of Helsinki principles. […]
Pancreatic CSC spheres were generated as previously described in ultra-low attachment plates (Corning) using CSC media: serum-free DMEM/F12 medium (1:1; #21331-020; Gibco, Waltham, MA, USA), supplemented with Pen/Strep (1:100; #1500-063; Gibco, Waltham, MA, USA), Fungizone (1:250; #15290-018; Gibco), L-Glutamine (1:100; #25030-024; Gibco, Waltham, MA, USA), B-27 (1:50; #17504-044; Gibco, Waltham, MA, USA) and basic fibroblast growth factor (FGF-b) (1:5000; Gibco, Waltham, MA, USA). […] To quantify spheres of > 40 μm, 1 mL of sample volume was analyzed with a CASY® Cell Counter (Roche Applied Sciences, Mannheim, Germany). […]

Assay [2] has as its system PDAC4 cultures. As to the kind of experiment: Sphere formation assay. The following applies: 0.1 µg/mL GEM or Cpd 1 at 1.25 or 2.5 µM. The class given is cell-based, human. The source says:
(§1) Pancreatic CSC spheres were generated as previously described in ultra-low attachment plates (Corning) using CSC media: serum-free DMEM/F12 medium (1:1; #21331-020; Gibco, Waltham, MA, USA), supplemented with Pen/Strep (1:100; #1500-063; Gibco, Waltham, MA, USA), Fungizone (1:250; #15290-018; Gibco), L-Glutamine (1:100; #25030-024; Gibco, Waltham, MA, USA), B-27 (1:50; #17504-044; Gibco, Waltham, MA, USA) and basic fibroblast growth factor (FGF-b) (1:5000; Gibco, Waltham, MA, USA). All cell culture was carried out at 37 °C in a 5% CO2 humidified incubator. To quantify spheres of > 40 μm, 1 mL of sample volume was analyzed with a CASY® Cell Counter (Roche Applied Sciences, Mannheim, Germany). The CASY® Cell Counter measuring principle is based on a capillary particle counter with pulse area analysis, that permits the determination of cell count, cell concentration, cell volume (peak), and average cell diameter, specifically diameters of 40–80 μm, 80–120 μm and >120 μm.

For assay [3], the system named is PDAC2 cultures. As to the kind of experiment: Sphere formation assay. Type of assay: cell-based, human. The following applies: 0.1 µg/mL GEM or Cpd 1 at 1.25 or 2.5 µM.
From the text: as §1

The target of assay [4] is T1, SGK2 (Homo sapiens, UniProt Q9HBY8).
T1 construct: purchased DiscoveRx KINOMEscan
As to the kind of experiment: KINOMEscan. The class given is binding. The conditions noted are these: read-out: % Ctrl.

The target in assay [5] is T2, DDR1 (Homo sapiens, UniProt Q08345).
T2 construct: purchased DiscoveRx KINOMEscan
As to the kind of experiment: KINOMEscan. Type of assay: binding. The conditions noted are these: read-out: % Ctrl.

Assay [6] addresses T3, CDK3 (Homo sapiens, UniProt Q00526).
T3 construct: purchased DiscoveRx KINOMEscan
As to the kind of experiment: KINOMEscan. Type of assay: binding. The following applies: read-out: % Ctrl.

The target of assay [7] is T4, TRPM6 (Homo sapiens, UniProt Q9BX84).
T4 construct: purchased DiscoveRx KINOMEscan
As to the kind of experiment: KINOMEscan. Type of assay: binding. The conditions noted are these: read-out: % Ctrl.

In assay [8] the target is T5, ABL2 (Homo sapiens, UniProt P42684).
T5 construct: purchased DiscoveRx KINOMEscan
As to the kind of experiment: KINOMEscan. Type of assay: binding. The conditions noted are these: read-out: % Ctrl.

Assay [9] addresses T6, SGK3 (Homo sapiens, UniProt Q96BR1).
T6 construct: purchased DiscoveRx KINOMEscan
As to the kind of experiment: KINOMEscan. The class given is binding. The conditions noted are these: read-out: % Ctrl.

The target in assay [10] is T7, JAK2(JH1D.-cat.) (Homo sapiens, UniProt O60674).
T7 construct: JAK2(JH1D.-cat.); purchased DiscoveRx KINOMEscan
As to the kind of experiment: KINOMEscan. The class given is binding. The conditions noted are these: read-out: % Ctrl.

For assay [11], the target named is T8, AKT2 (Homo sapiens, UniProt P31751).
T8 construct: purchased DiscoveRx KINOMEscan
As to the kind of experiment: KINOMEscan. The conditions noted are these: read-out: % Ctrl. The class given is binding.

Assay [12] concerns the target T9, PRKG2 (Homo sapiens, UniProt Q13237).
T9 construct: purchased DiscoveRx KINOMEscan
As to the kind of experiment: KINOMEscan. Type of assay: binding. The following applies: read-out: % Ctrl.

For assay [13], the target named is T10, YANK1 (Homo sapiens, UniProt Q8WU08).
T10 construct: purchased DiscoveRx KINOMEscan
As to the kind of experiment: KINOMEscan. Type of assay: binding. The conditions noted are these: read-out: % Ctrl.

The target of assay [14] is T11, KIT(V559D,V654A) (Homo sapiens, UniProt P10721, V559D/V654A).
T11 construct: purchased DiscoveRx KINOMEscan
As to the kind of experiment: KINOMEscan. The following applies: read-out: % Ctrl. The class given is binding.

In assay [15] the target is T12, ABL1(T315I)-P (Homo sapiens, UniProt P00519, T315I).
T12 construct: purchased DiscoveRx KINOMEscan
As to the kind of experiment: KINOMEscan. The class given is binding. The conditions noted are these: read-out: % Ctrl.

The target of assay [16] is T13, CDK7 (Homo sapiens, UniProt P50613).
T13 construct: purchased DiscoveRx KINOMEscan
As to the kind of experiment: KINOMEscan. The class given is binding. The following applies: read-out: % Ctrl.

Assay [17] has as its target T14, TIE2 (Homo sapiens, UniProt Q02763).
T14 construct: purchased DiscoveRx KINOMEscan
As to the kind of experiment: KINOMEscan. Type of assay: binding. The following applies: read-out: % Ctrl.

The target of assay [18] is T15, MAK (Homo sapiens, UniProt P20794).
T15 construct: purchased DiscoveRx KINOMEscan
As to the kind of experiment: KINOMEscan. The class given is binding. The conditions noted are these: read-out: % Ctrl.

Assay [19] has as its target T16, MYLK2 (Homo sapiens, UniProt Q9H1R3).
T16 construct: purchased DiscoveRx KINOMEscan
As to the kind of experiment: KINOMEscan. Type of assay: binding. The following applies: read-out: % Ctrl.

T5 sequence (P42684 whole entry): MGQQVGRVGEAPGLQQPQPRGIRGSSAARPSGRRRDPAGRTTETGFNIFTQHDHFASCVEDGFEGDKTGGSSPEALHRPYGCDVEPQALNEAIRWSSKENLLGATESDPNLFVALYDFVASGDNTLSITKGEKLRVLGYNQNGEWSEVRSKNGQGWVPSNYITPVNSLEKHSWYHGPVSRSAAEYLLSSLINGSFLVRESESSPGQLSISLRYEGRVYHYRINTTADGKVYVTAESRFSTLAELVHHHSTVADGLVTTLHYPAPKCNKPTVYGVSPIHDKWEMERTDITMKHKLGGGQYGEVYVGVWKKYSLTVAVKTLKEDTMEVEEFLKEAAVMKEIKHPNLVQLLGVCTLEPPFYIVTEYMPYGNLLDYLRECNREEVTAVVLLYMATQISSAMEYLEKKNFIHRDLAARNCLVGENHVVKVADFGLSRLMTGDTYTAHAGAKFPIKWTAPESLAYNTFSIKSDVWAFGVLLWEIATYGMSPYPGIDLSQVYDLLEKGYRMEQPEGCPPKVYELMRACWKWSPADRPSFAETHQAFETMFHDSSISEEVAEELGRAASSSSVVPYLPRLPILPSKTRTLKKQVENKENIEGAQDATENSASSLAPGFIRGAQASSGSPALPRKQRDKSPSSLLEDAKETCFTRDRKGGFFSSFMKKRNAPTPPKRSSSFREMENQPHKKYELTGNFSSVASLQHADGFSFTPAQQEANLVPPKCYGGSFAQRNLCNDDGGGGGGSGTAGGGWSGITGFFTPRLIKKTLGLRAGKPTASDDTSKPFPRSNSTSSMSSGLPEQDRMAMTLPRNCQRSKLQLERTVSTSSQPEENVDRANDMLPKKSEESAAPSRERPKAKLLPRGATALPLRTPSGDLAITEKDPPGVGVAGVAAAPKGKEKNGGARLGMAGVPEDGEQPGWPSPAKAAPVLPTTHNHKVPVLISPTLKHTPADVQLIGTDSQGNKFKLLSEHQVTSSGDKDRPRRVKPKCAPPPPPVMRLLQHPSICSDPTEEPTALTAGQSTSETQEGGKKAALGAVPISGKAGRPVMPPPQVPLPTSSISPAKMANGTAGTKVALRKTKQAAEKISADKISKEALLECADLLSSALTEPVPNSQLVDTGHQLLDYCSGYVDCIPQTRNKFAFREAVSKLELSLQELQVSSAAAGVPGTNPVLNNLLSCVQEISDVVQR
T15 sequence (P20794 whole entry): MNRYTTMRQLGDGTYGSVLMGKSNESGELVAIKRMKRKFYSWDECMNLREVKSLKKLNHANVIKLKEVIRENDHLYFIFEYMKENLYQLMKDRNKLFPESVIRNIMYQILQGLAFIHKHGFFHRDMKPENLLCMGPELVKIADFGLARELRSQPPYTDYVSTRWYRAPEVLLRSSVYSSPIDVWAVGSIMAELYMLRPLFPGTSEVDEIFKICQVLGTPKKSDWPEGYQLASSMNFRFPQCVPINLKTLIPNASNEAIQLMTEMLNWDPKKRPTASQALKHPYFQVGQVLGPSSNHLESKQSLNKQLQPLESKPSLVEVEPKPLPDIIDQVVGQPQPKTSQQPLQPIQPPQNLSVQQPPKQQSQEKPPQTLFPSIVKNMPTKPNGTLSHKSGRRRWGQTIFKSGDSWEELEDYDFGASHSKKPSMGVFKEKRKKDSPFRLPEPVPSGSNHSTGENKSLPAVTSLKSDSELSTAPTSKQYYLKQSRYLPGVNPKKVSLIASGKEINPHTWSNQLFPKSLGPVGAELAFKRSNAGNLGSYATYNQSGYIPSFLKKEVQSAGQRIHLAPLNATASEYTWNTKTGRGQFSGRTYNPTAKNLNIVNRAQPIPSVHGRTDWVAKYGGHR
T8 sequence (P31751 whole entry): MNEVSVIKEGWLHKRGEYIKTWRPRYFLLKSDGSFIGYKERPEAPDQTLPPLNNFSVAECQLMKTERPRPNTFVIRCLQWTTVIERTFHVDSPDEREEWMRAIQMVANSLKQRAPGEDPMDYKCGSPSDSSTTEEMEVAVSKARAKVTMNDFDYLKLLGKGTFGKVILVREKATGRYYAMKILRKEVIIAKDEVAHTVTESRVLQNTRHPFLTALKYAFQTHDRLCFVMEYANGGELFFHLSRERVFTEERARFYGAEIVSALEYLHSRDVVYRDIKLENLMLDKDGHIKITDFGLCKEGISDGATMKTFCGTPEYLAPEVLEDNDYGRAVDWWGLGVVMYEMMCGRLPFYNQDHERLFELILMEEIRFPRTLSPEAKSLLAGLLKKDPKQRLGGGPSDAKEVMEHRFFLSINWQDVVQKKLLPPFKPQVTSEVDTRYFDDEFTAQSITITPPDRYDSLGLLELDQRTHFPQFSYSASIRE
T13 sequence (P50613 whole entry): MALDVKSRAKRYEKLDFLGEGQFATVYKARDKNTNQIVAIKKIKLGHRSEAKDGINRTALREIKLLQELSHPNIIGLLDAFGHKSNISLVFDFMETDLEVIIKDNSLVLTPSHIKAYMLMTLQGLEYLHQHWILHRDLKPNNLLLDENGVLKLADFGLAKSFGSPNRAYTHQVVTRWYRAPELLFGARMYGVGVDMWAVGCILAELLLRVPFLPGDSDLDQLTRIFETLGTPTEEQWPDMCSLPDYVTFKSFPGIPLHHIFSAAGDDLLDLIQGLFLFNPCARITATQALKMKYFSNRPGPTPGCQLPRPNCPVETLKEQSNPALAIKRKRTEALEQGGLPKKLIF
T6 sequence (Q96BR1 whole entry): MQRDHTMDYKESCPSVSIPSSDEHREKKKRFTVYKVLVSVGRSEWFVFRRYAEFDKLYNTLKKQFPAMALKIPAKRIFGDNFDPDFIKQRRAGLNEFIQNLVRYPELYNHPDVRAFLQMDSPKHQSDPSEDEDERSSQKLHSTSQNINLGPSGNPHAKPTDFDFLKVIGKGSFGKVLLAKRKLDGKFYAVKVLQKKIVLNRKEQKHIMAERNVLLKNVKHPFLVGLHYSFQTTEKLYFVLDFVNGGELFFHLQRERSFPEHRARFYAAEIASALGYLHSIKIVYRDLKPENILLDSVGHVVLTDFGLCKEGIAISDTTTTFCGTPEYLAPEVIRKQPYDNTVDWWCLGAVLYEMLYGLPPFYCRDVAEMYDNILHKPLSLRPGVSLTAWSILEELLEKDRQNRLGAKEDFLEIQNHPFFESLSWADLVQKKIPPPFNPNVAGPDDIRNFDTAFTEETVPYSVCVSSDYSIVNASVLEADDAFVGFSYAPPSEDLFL
T1 sequence (Q9HBY8 whole entry): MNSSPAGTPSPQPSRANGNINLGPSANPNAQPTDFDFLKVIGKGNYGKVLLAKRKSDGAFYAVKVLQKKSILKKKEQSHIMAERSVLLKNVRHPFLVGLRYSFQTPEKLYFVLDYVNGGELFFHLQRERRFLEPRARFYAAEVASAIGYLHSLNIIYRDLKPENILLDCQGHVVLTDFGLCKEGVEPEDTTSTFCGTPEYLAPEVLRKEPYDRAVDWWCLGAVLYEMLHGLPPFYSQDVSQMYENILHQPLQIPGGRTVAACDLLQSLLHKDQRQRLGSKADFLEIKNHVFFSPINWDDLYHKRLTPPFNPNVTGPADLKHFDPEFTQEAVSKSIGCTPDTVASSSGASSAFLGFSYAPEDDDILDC
T2 sequence (Q08345 19-913): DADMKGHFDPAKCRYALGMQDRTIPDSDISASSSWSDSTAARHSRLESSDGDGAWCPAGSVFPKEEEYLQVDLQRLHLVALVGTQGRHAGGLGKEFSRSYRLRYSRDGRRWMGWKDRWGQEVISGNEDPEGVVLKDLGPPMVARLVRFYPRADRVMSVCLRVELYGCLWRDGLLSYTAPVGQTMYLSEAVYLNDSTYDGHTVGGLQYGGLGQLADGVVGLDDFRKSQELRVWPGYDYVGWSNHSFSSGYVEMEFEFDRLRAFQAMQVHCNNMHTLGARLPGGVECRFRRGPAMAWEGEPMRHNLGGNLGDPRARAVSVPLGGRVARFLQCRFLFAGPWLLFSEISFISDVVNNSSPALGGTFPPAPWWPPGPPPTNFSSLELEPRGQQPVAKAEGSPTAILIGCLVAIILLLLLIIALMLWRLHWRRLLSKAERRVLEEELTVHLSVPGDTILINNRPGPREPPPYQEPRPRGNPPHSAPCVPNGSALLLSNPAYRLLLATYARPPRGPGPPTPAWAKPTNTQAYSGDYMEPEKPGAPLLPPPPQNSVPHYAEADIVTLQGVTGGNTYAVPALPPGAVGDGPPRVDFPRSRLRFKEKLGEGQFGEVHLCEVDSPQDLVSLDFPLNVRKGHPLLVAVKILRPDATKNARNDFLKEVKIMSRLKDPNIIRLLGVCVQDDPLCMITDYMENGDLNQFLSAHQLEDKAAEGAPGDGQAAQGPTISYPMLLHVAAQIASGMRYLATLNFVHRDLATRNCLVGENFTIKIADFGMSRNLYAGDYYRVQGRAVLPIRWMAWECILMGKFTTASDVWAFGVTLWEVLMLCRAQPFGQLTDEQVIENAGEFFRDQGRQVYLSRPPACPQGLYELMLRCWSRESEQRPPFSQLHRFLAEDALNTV
T3 sequence (Q00526 whole entry): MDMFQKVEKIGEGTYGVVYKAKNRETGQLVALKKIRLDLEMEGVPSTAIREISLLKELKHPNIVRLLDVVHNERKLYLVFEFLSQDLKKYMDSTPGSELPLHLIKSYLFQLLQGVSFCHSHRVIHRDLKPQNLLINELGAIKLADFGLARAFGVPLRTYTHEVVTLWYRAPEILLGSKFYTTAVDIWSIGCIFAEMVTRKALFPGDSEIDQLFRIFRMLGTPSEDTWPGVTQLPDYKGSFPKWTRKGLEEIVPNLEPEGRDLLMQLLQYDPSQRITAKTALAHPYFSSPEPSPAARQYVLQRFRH
T7 sequence (O60674 849-1132 limits assumed): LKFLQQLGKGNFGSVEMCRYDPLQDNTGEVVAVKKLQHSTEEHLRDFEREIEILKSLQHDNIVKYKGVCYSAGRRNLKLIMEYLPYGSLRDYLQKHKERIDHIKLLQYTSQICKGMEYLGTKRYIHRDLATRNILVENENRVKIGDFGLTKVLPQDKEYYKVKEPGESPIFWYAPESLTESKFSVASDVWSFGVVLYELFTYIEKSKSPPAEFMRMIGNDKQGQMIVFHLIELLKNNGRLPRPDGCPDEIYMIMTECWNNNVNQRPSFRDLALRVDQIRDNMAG

Consider `COc1nc2ccc(NCC3CCN(C)CC3)nn2c1C(=O)Nc1cccc(OC(F)(F)F)c1` [Cpd 1], for which, in [1], the EC50 (commonly the concentration that produces a half-maximal response) is around 2910 nM. The sphere-forming capacity entry in [2] and in assay [3] was “decreased sphere forming capacity” each time.
For the compound `CN1CCC(CNc2ccc3ncc(C(=O)Nc4cccc(OC(F)(F)F)c4)n3n2)CC1` [Cpd 2], the remaining binding at 1 µM turned out to be 100% in assay [4]; 92% in [5]; 85% in assay [6]; 100% in assay [7]; 96% in [8]; 100% in assay [9]. The remaining binding at 1 µM in assay [10] is 96%; in [11], 100%; in [12], 100%; in [13], 100%; in assay [14], 91%; in assay [15], 100%. Further, the remaining binding at 1 µM was found to be 70% in [16], 100% in assay [17], 94% in assay [18] and 97% in assay [19].
